The nature of data set [1]: Oral bioavailability in Beagle dog at 0.5 mg/kg. The format is ADME, organism-based, Canis lupus familiaris. The note with it: in vivo.
A short description of data set [2]: Drug level in Sprague-Dawley rat plasma at 3 mg/kg at Tmax. The following applies: read-out: Drug uptake. The format is ADME, organism-based. Set-up: dose 3 mg/kg.
The nature of data set [3]: Total clearance in Sprague-Dawley rat at 3 mg/kg, iv. It is filed as ADME, organism-based. Set-up: dose 3 mg/kg, route intravenous. The following applies: in vivo.
Data set [4] is described as follows: Plasma protein binding in rat at 20 ng/ml after 0.5 hrs by LC-MS/MS analysis. It is filed as ADME, cell-free. The following applies: read-out: PPB (converted).
Data set [5] in a line: Total clearance in Beagle dog at 0.2 mg/kg, iv. The format is ADME, organism-based, Canis lupus familiaris. Set-up: dose 0.2 mg/kg, route intravenous. The note with it: in vivo.
A short description of data set [6]: Tmax in Sprague-Dawley rat at 3 mg/kg, po. The note with it: in vivo. The format is ADME, organism-based. Set-up: dose 3 mg/kg, route oral.
A short description of data set [7]: Plasma protein binding in human at 2000 ng/ml after 0.5 hrs by LC-MS/MS analysis. The following applies: read-out: PPB (converted). The format is ADME, cell-free.
Data set [8] is described as follows: Tmax in Beagle dog at 0.5 mg/kg, po. Set-up: dose 0.5 mg/kg, route oral. The following applies: in vivo. The format is ADME, organism-based, Canis lupus familiaris.
A short description of data set [9]: Tmax in Sprague-Dawley rat at 10 mg/kg, po. It is filed as ADME, organism-based. Set-up: dose 10 mg/kg, route oral. The note with it: in vivo.
Data set [10] in a line: Plasma protein binding in rat at 2000 ng/ml after 0.5 hrs by LC-MS/MS analysis. It is filed as ADME, cell-free. The following applies: read-out: PPB (converted).
The subject of data set [11] is Canis familiaris. In words: Volume of distribution at steady state in Beagle dog at 0.2 mg/kg, iv. It is filed as ADME, organism-based, Canis lupus familiaris. Set-up: dose 0.2 mg/kg, route intravenous. The following applies: in vivo.
Data set [12] can be described thus: Cmax in Beagle dog at 0.5 mg/kg, po. Set-up: dose 0.5 mg/kg, route oral. The following applies: in vivo. The format is ADME, organism-based, Canis lupus familiaris.
The test system of data set [13] is Canis familiaris. The experiment in a line: AUC in Beagle dog at 0.5 mg/kg, po. It is filed as ADME, organism-based, Canis lupus familiaris, Plasma. Set-up: dose 0.5 mg/kg, route oral. The note with it: in vivo.
The nature of data set [14]: Terminal half life in Sprague-Dawley rat at 10 mg/kg, po. The format is ADME, organism-based. The following applies: in vivo, read-out: beta t1/2 (converted). Set-up: dose 10 mg/kg, route oral.
Data set [15] can be described thus: Plasma protein binding in human at 20 ng/ml after 0.5 hrs by LC-MS/MS analysis. The format is ADME, cell-free. The note with it: read-out: PPB (converted).
Data set [16] relates to Rattus norvegicus. In words: Inhibition of plasma DPP-4 activity in orally dosed Wistar/ST rat pretreated 30 mins before glucose challenge measured for 2 hrs during oral glucose tolerance test. The format is functional, organism-based.
Data set [17] in a line: Cmax in Sprague-Dawley rat at 3 mg/kg, po. The note with it: in vivo. The format is ADME, organism-based. Set-up: dose 3 mg/kg, route oral.
Data set [18] can be described thus: Plasma protein binding in dog at 2000 ng/ml after 0.5 hrs by LC-MS/MS analysis. It is filed as ADME, cell-free, Canis lupus familiaris. The following applies: read-out: PPB (converted).
For data set [19], the system named is Rattus norvegicus. The experiment in a line: Inhibition of plasma DPP-4 activity in Wistar/ST rat at 10 mg/kg, po pretreated 30 mins before glucose challenge measured within 30 mins. The format is functional.
The nature of data set [20]: Plasma protein binding in dog at 20 ng/ml after 0.5 hrs by LC-MS/MS analysis. The format is ADME, cell-free, Canis lupus familiaris. The following applies: read-out: PPB (converted).
Data set [21] has as its system Rattus norvegicus. In words: Inhibition of plasma DPP-4 activity in Wistar/ST rat at 3 mg/kg, po pretreated 30 mins before glucose challenge measured for 2 hrs during oral glucose tolerance test. It is filed as functional.
Data set [22] is described as follows: Terminal half life in Beagle dog at 0.5 mg/kg, po. Set-up: dose 0.5 mg/kg, route oral. The following applies: in vivo, read-out: beta t1/2 (converted). It is filed as ADME, organism-based, Canis lupus familiaris.
Data set [23] can be described thus: Oral bioavailability in Sprague-Dawley rat at 10 mg/kg. The format is ADME, organism-based. The note with it: in vivo.
The subject of data set [24] is Rattus norvegicus. The experiment in a line: AUC in Sprague-Dawley rat at 10 mg/kg, po. The format is ADME, organism-based, Plasma. Set-up: dose 10 mg/kg, route oral. The following applies: in vivo.
Data set [25] has as its system Rattus norvegicus. In words: Volume of distribution at steady state in Sprague-Dawley rat at 3 mg/kg, iv. The format is ADME, organism-based. Set-up: dose 3 mg/kg, route intravenous. The following applies: in vivo.
Data set [26] is described as follows: Cmax in Sprague-Dawley rat at 10 mg/kg, po. The format is ADME, organism-based. Set-up: dose 10 mg/kg, route oral. The note with it: in vivo.
Data set [27] concerns Rattus norvegicus. The experiment in a line: Antidiabetic activity in Wistar/ST rat plasma assessed as reduction in glucose AUC (0 to 60 mins) at 10 mg/kg, po pretreated 30 mins before glucose challenge measured for 2 hrs by oral glucose tolerance test. It is filed as functional, organism-based. Set-up: dose 10 mg/kg.
In data set [28] the target is Dipeptidyl peptidase 8 (Homo sapiens, UniProt Q6V1X1). The experiment in a line: Inhibition of human recombinant DPP-8 expressed in Sf9 cells using H-Gly-Pro-AMC as substrate preincubated for 30 mins before substrate addition measured after 20 mins by fluorescence assay.
Data set [29] is described as follows: Oral bioavailability in Sprague-Dawley rat at 5 mg/kg. It is filed as ADME, organism-based. The note with it: in vivo.

Molecules are shown by their SMILES. pIC50: −log10 of the molar value. Calls of active or inactive are those of the source. The rule behind the calls is not given here.

Sequence of Dipeptidyl peptidase 8 (Q6V1X1 whole entry): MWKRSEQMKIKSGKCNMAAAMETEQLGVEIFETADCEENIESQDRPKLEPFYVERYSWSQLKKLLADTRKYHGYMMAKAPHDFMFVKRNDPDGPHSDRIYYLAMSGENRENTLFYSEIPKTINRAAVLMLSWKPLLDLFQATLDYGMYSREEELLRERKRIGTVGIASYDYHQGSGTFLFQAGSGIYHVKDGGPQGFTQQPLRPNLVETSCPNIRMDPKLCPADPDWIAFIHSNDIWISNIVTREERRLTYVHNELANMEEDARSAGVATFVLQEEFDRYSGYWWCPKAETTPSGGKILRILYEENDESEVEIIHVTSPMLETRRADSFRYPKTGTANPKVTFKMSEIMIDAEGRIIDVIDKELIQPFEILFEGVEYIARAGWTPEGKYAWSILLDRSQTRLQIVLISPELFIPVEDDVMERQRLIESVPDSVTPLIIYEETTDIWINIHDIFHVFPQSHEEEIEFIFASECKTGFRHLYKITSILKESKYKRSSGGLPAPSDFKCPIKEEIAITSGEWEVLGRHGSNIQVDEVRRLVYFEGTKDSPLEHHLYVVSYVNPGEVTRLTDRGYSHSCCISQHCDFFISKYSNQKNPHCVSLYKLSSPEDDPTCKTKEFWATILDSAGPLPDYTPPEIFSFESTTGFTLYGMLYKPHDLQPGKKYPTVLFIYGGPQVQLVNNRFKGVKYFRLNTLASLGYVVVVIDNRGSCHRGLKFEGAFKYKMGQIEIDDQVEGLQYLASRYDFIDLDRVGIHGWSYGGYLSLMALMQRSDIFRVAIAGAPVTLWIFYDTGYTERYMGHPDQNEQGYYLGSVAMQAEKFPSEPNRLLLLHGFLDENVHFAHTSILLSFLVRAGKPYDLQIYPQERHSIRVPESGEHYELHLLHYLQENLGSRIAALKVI

Turning to `Cc1cc2ncc(C(=O)NCC(C)(C)NCC(=O)N3CCC[C@H]3C#N)c(C)n2n1.Cl`, the bioavailability – broadly, the share of a dose that reaches the circulation, judged against a reference dose that is usually intravenous – in [1] is 98%; in data set [23], 27%. For the same molecule, the Cmax in data set [2] was found to be 54 nM; in [12], 282 ng/mL; in data set [17], 68 ng/mL; in data set [26], 747 ng/mL. Also, the clearance (usually the rate of elimination divided by the concentration) in data set [3] is 37.2 mL/min/kg; in [5] it was 10.3 mL/min/kg. Besides, the fraction unbound at 0.5 h, 20 ng/ml in data set [4] was 0.779; in data set [15], 0.811; in data set [20] it was 0.775. Further, the Tmax (in general, the time at which the peak concentration occurs) stood at 0.25 h in data set [6], 1 h in data set [8] and 0.25 h in [9]. The fraction unbound at 0.5 h, 2000 ng/ml in [7] is 0.784; in data set [10], 0.821; in data set [18], 0.801. Further, the Vdss (in general, a proportionality between amount in the body and measured concentration, not a real space) stood at 0.75 L/kg in data set [11] and 1.61 L/kg in data set [25]. Besides, the values for the AUC in data set [13] and in [24] were 6390 ng·h/mL and 1110 ng·h/mL, respectively. Further, the results for the half-life in data set [14] and in [22] were 1.9 h and 1.3 h, respectively. Further, the inhibition entry in data set [16] is “Dose-dependent effect”. Further, in data set [19], the inhibition in vivo (commonly the share of the control response that was lost under treatment) at 10 mg/kg is 90%. The inhibition in vivo at 3 mg/kg in data set [21] turned out to be 60%. Moreover, the outcome in data set [27] was Active.
As to `Cc1cc2ncc(C(=O)NCC(C)(C)NCC(=O)N3CCC[C@H]3C#N)c(C(F)(F)F)n2n1`, the pIC50 (in general, the IC50 on a negative log10 scale, so that one unit is a factor of ten) in data set [28] is less than 4.00.
As for `Cc1cc2ncc(C(=O)NCC(C)(C)NCC(=O)N3CCC[C@H]3C#N)c(O)n2n1.Cl`, in data set [29], the bioavailability was 4.1%.
`Cc1c(C(=O)NCC(C)(C)NCC(=O)N2CCC[C@H]2C#N)cnc2cc(C(C)(C)C)nn12`: the pIC50 in [28] is less than 4.00.

Source of the values: ChEMBL document CHEMBL1926646 (Bioorg Med Chem, 2011).
